The results in this text go back to US8337871B2, “Insecticide formulation” (Endura S.p.A., priority 2003, dated 2012).

Data set [1] deals with cotton aphid strain (Aphis Gossypii). Kind of data set: Mortality assay on cotton aphid (example 19). The conditions noted are these: for No. insects alive/no. total insects after 24 hours: in Agral 90, 24 hours. The method, then:
In a mortality assay conducted as reported in the literature [Gunning R. V. et al., J. Econ. Entomol.
A mortality assay was performed as reported in example 4 on a cotton aphid strain (Aphis Gossypii) using the formulation described in example 10, dissolved in 10 ml Agral 90. Data obtained with fenvalerate dissolved in 10 ml Agral 90, and with placebo (10 ml Agral 90) are shown as a reference. In all tests, concentration values are referred to the amount of active principle.

For data set [2], the system named is Bemisia Tabaci strain (B-Biotype) (Silver leaf whitefly). Kind of data set: Mortality assay on Bemisia Tabaci (example 18). It counts as in vivo. The conditions noted are these: in Agral 90, 48 hours. As for the experimental part: (B-Biotype) (Silver leaf whitefly) using the formulation described in example 16, dissolved in 10 ml Agral 90.
The test system of data set [3] is Heicoverpa Armigera strain (Cotton Bollworm). Kind of data set: Mortality assay on Cotton Bollworm (example 20). It counts as in vivo. To be noted: in Agral 90, 24 hours. As for the experimental part:
Data obtained with αcypermethrin dissolved in 10 ml Agral 90, and with a mixture of αcypermethrin/PBO dissolved in 10 ml of Agral 90 (the PBO content being 0.2% with respect to αcypermethrin) are shown as a reference.

The mark [4] stands for this setting: concentration 0.01 % w/v active principle.
[5] abbreviates: concentration 0.1 % w/v active principle.
The mark [6] stands for this setting: concentration 0.0005 % w/v active principle.
The mark [7] stands for this setting: concentration 0.001 % w/v active principle.

In general, mortality refers to the share of the test organisms that died. `CC(C)C(C(=O)OC(C#N)c1cccc(Oc2ccccc2)c1)c1ccc(Cl)cc1` (centres unmarked) [fenvalerate]: in data set [1] (Aphis gossypii, 24 h), the mortality at 0.002 % strength turned out to be 0%, the mortality at 0.02 % strength worked out at 20% and the mortality at 0.2 % strength was found to be 40%. Further, the “No. insects alive/no. total insects after 24 hours” value in data set [1] (concentration 0.002 % w/v active principle) was 10/10. For the same molecule, the “No. insects alive/no. total insects after 24 hours” value in data set [1] (concentration 0.02 % w/v active principle) is on record as 8/10. For the same molecule, the “No. insects alive/no. total insects after 24 hours” value in data set [1] (concentration 0.2 % w/v active principle) was 6/10.

Take `CC1(C)C(C=C(Cl)Cl)C1C(=O)OC(C#N)c1cccc(Oc2ccccc2)c1` (centres unmarked) [αcypermethrin]: the Mortality % in data set [2] (setting [4]) worked out at 19%; in data set [2] (setting [5]), 67%; in data set [3] (setting [6]), 40%; in data set [3] (setting [7]), 60%. For the same molecule, the “No. insects alive/no. total insects after 48 hours” value in data set [2] (setting [4]) is reported as 22/27; in data set [2] (setting [5]) it was 4/12. Besides, the “No. insects alive/no. total insects after 24 hours” value in data set [3] (setting [6]) was 6/10; in data set [3] (setting [7]), 4/10.
